BindingDB's records for doi:10.1016/j.bmcl.2018.11.048 (Advinus Therapeutics, 2019)

Tests used:
[1] = target: T1, Fatty-acid amide hydrolase 1 (Homo sapiens, UniProt O00519); assay: Inhibition of human transmembrane domain deficient FFAH expressed in Escherichia coli using AAMCA as substrate incubated for 1 min measured for 50 mins by fluorescence assay
T1 sequence (O00519 whole entry): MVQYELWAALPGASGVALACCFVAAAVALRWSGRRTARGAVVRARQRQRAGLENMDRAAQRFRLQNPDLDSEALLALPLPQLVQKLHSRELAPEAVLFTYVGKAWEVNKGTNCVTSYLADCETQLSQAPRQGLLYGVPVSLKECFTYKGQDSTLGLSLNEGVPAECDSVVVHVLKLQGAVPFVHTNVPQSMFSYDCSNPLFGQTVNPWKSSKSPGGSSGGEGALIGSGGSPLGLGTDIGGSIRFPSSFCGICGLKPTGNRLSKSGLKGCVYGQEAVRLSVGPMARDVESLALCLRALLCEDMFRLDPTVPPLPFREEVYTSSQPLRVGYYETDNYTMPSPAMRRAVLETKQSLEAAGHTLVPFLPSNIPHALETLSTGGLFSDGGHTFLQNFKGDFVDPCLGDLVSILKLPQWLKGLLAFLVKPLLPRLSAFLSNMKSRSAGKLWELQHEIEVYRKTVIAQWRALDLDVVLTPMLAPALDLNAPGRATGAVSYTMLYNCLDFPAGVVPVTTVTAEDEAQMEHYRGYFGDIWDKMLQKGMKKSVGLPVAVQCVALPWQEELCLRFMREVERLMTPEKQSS

[2] = target: T2, Fatty-acid amide hydrolase 1 [30-579] (Rattus norvegicus, UniProt P97612); assay: Inhibition of rat FFAH expressed in Escherichia coli using AAMCA as substrate incubated for 1 min measured for 50 mins by fluorescence assay
T2 construct: 30-579
T2 sequence (P97612 whole entry): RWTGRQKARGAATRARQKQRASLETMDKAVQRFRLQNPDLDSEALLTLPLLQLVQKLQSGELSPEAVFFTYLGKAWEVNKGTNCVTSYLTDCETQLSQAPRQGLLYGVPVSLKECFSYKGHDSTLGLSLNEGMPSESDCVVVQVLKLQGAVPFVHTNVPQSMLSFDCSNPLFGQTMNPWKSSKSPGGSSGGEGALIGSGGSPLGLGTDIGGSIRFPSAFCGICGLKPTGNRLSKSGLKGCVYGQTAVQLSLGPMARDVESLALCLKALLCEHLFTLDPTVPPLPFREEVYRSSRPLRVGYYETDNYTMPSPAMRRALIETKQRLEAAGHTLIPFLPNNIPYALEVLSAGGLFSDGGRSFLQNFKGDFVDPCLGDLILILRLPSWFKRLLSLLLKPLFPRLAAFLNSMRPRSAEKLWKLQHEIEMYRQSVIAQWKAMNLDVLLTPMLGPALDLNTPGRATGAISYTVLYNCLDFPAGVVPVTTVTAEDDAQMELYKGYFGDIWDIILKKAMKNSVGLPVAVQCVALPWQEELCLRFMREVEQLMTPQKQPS

CCOC(=O)Cn1nc2c(c1C(C)C)C(c1ccc(Cl)cc1C)N(c1cc(Cl)ccc1C)C2=O (stereo unspecified) [US9682953, 20.A-1]
IC50 [1]: 2.2 nM

Cc1cc(C(=O)NC2CCC(=Cc3cccc(Oc4ccc(C(F)(F)F)cn4)c3)CC2)cnc1N (stereo unspecified) [US9682953, 20.A-5]
IC50 [1]: 3 nM
IC50 [2]: 29 nM

O=C(NC1CCC(=Cc2cccc(Oc3ccc(C(F)(F)F)cn3)c2)CC1)c1cn[nH]c1 (stereo unspecified) [US9682953, 20.A-12]
IC50 [1]: 2.6 nM

O=C(NC1CCC(=Cc2cccc(Oc3ccc(C(F)(F)F)cn3)c2)CC1)c1cnc2[nH]ccc2c1 (stereo unspecified) [US9682953, 20.A-13]
IC50 [1]: 2.2 nM

O=C(NC1CCC(=Cc2cccc(Oc3ccc(C(F)(F)F)cn3)c2)CC1)c1cncnc1 (stereo unspecified) [US9682953, 20.A-20]
IC50 [1]: 2.6 nM
